Experimental data as given in ChEMBL document CHEMBL1955760, “Pyrrolovesamicols--synthesis, structure and VAChT binding of two 4-fluorobenzoyl regioisomers” (Bioorg Med Chem Lett, 2012).

What was measured:
[1] = molecular target: T1, Vesicular acetylcholine transporter (Homo sapiens, UniProt Q16572); assay: Binding affinity to VAchT
T1 sequence (Q16572 whole entry): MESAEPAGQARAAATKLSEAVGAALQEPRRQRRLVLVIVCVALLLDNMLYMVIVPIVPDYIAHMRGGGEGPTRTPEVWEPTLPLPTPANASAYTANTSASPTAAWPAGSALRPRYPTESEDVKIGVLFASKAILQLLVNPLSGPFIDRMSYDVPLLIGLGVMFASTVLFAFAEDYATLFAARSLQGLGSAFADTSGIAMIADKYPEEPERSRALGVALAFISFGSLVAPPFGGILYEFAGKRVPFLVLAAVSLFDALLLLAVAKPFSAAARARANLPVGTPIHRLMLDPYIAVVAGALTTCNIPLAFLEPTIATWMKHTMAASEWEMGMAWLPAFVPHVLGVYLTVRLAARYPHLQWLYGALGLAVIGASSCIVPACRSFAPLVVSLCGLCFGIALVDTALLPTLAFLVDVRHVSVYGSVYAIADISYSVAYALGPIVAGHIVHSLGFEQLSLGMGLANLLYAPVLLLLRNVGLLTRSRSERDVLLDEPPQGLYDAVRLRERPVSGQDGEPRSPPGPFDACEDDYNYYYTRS

[2] = molecular target: T1, Vesicular acetylcholine transporter; assay: Binding affinity to VAchT transfected in rat PC12 cells; format: cell-based, PC-12
[3] = molecular target: T2, Vesicular acetylcholine transporter (Rattus norvegicus, UniProt Q62666); assay: Displacement of (-)-[3H]vesamicol from rat VAchT transfected in rat PC12 cells after 2 hrs by scintillation counting; format: cell-based, PC-12
T2 sequence (Q62666 whole entry): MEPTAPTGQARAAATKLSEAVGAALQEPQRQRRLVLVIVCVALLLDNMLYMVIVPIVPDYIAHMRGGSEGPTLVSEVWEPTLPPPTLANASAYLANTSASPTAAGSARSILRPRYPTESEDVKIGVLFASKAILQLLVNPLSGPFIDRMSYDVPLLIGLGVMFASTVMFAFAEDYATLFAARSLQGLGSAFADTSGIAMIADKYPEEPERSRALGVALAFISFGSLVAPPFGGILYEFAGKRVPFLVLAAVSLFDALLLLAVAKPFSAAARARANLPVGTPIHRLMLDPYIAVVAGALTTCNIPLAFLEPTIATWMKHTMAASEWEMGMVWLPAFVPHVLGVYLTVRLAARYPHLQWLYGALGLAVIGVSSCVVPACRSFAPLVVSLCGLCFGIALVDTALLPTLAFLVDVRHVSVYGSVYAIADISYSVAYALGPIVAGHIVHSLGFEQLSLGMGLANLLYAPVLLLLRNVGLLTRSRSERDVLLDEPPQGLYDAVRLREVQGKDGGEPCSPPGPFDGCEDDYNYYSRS

| Ki [3] [nM] | SMILES | Ki [1] [nM] | further results |
| --- | --- | --- | --- |
|  | CCN(C(=O)C[18F])c1cccc2c1C[C@@H](N1CCC(c3ccccc3)CC1)[C@H](O)C2 | 0.32 |  |
|  | O=C(c1ccc([18F])cc1)N1CCOC2C[C@@H](O)[C@H](N3CCC(c4ccccc4)CC3)CC21 (mixture of isomers) |  | Ki [2]: 27.5 nM |
| 312 | O=C(c1ccc(F)cc1)c1cc2c([nH]1)C[C@@H](N1CCC(c3ccccc3)CC1)[C@H](O)C2 (racemic) |  |  |
| 7320 | O=C(c1ccc(F)cc1)c1cc2c([nH]1)C[C@@H](O)[C@H](N1CCC(c3ccccc3)CC1)C2 (racemic) |  |  |
|  | O[C@@H]1CCN(Cc2ccc([18F])cc2)C[C@H]1N1CCC(c2ccccc2)CC1 (racemic) | 0.44 |  |
